Test results from BindingDB's records for doi:10.1016/s0960-894x(97)10151-2 (Merck, 1999).

The compounds below were run against Endothelin receptor type B (Sus scrofa) (assay: Inhibition of [125I]ET1 binding to porcine kidney inner medulla membrane Endothelin B receptor).
`CCCOc1ccc2c(c1)c(-c1ccc(OC)cc1)c(C(=O)O)n2Cc1ccc2nsnc2c1` [1-Benzo[1,2,5]thiadiazol-5-ylmethyl-3-(4-methoxy-phenyl)-5-propoxy-1H-indole-2-carboxylic acid] gave an IC50 of 1200 nM. `CCCOc1ccc2c(c1)c(-c1ccc3c(c1)OCO3)c(C(=O)O)n2Cc1ccc2nonc2c1` [3-Benzo[1,3]dioxol-5-yl-1-benzo[1,2,5]oxadiazol-5-ylmethyl-5-propoxy-1H-indole-2-carboxylic acid] showed an IC50 of 5300 nM. For `COc1ccc(C2(O)OC(=O)C(c3ccc4nsnc4c3)=C2Cc2cc(OC)c(OC)c(OC)c2)cc1` (configuration not stated) [3-Benzo[1,2,5]thiadiazol-5-yl-5-hydroxy-5-(4-methoxy-phenyl)-4-(3,4,5-trimethoxy-benzyl)-5H-furan-2-one], the IC50 was 340 nM. In the case of `CCCOc1ccc2c(c1)c(-c1ccc3c(c1)OCO3)c(C(=O)O)n2Cc1ccc2c(c1)OCO2` [3-Benzo[1,3]dioxol-5-yl-1-benzo[1,3]dioxol-5-ylmethyl-5-propoxy-1H-indole-2-carboxylic acid], the IC50 is reported as 1600 nM. Compound `COc1ccc(-c2c(C(=O)O)c(=O)n(Cc3ccc4c(c3)OCO4)c3c2oc2ccccc23)cc1` [1-Benzo[1,3]dioxol-5-ylmethyl-4-(4-methoxy-phenyl)-2-oxo-1,2-dihydro-benzo[4,5]furo[3,2-b]pyridine-3-carboxylic acid] has an IC50 of 440 nM. With `COc1ccc(-c2c(C(=O)O)c(=O)n(Cc3ccc4nsnc4c3)c3c2oc2ccccc23)cc1` [1-Benzo[1,2,5]thiadiazol-5-ylmethyl-4-(4-methoxy-phenyl)-2-oxo-1,2-dihydro-benzo[4,5]furo[3,2-b]pyridine-3-carboxylic acid] the IC50 was 300 nM. `CN(C)c1cccc2c(S(=O)(=O)Nc3ccc4c(c3)OCO4)cccc12` [5-Dimethylamino-naphthalene-1-sulfonic acid benzo[1,3]dioxol-5-ylamide] was tested, and the IC50 was > 10000 nM.
